Results as given in patent US11339160B2, “Imidazole and triazole containing bicyclic compounds as JAK inhibitors” (THERAVANCE BIOPHARMA R&D IP, LLC, priority 2019, dated 2022).

Key:
JAK3 = JAK3 (Homo sapiens (Human), UniProt P52333); test: Biochemical JAK3 kinase assay (LanthaScreen); settings: for JAK3 (pKi)-JAK1 (pKi): selectivity, difference of pKi values
Protocol: (§1) Assay 1: Biochemical JAK and Tyk2 Kinase Assays
(§2) A panel of four LanthaScreen JAK biochemical assays (JAK1, 2, 3 and Tyk2) were carried in a common kinase reaction buffer (50 mM HEPES, pH 7.5, 0.01% Brij-35, 10 mM MgCl2, and 1 mM EGTA). Recombinant GST-tagged JAK enzymes and a GFP-tagged STAT1 peptide substrate were obtained from Life Technologies.
Serially or discretely diluted compounds were pre-incubated with each of the four JAK enzymes and the substrate in white 384-well microplates (Corning) at ambient temperature for 1 h. ATP was subsequently added to initiate the kinase reactions in 10 μL total volume, with 1% DMSO. […] Kinase reactions were allowed to proceed for 1 hour at ambient temperature before a 10 μL preparation of EDTA (10 mM final concentration) and Tb-anti-pSTAT1 (pTyr701) antibody (Life Technologies, 2 nM final concentration) in TR-FRET dilution buffer (Life Technologies) was added. The plates were allowed to incubate at ambient temperature for 1 h before being read on the EnVision reader (Perkin Elmer). Emission ratio signals (520 nm/495 nm) were recorded and utilized to calculate the percent inhibition values based on DMSO and background controls.
(§3) For dose-response analysis, percent inhibition data were plotted vs. compound concentrations, and IC50 values were determined from a 4-parameter robust fit model with the Prism software (GraphPad Software). Results were expressed as pIC50 (negative logarithm of IC50) and subsequently converted to pKi (negative logarithm of dissociation constant, Ki) using the Cheng-Prusoff equation.

[1] = test system: IL-2 stimulated STAT5 phosphorylation in CD4+ T cells isolated from murine splenocytes; test: Inhibition of IL-2 stimulated pSTAT5 in CD4+ T cells isolated from murine splenocytes; format: cell-based; settings: Mus musculus, IL-2 7 ng/ml, read-out: pIC50, inhibition of IL-2 stimulated pSTAT5 (converted)
Protocol: Assay 3: Inhibition of IL-2 Stimulated pSTAT5 in CD4+ T Cells Isolated from Murine Splenocytes
The potency of test compounds for inhibition of interleukin-2 (IL-2) stimulated STAT5 phosphorylation was measured in the CD4+ T cells isolated from murine splenocytes using AlphaLisa. Because IL-2 signals through JAK3, this assay provides a measure of JAK3 cellular potency in mouse.
Phosphorylated STAT5 was measured via the AlphaLISA SureFire Ultra pSTAT5 (Tyr694/699) kit (PerkinElmer).
CD4+ T cells were isolated from murine splenocytes via negative selection on a magnetic column (Miltnyi Biotec) and re-suspended in assay media (phenol red-free DMEM (Life Technologies) supplemented with 10% FBS (ATCC)). Cells were seeded at 50,000 cells/well in assay media (2 μL/well). Compounds were serially diluted in DMSO and diluted to 2× final concentration in assay media. Compound was added (4 μl/well) and the cells incubated at 37° C., 5% CO2 for 1 hour, followed by the addition of IL-2 (R&D Systems; final concentration 7 ng/ml) in pre-warmed assay media (2 μL) for 30 minutes. After cytokine stimulation, cells were lysed with 2 μl of 5× AlphaLisa Lysis Buffer (PerkinElmer). The lysate was shaken at 900 rpm for 10 minutes at room temperature (RT). Phosphorylated STAT5 was measured via the pSTAT5 AlphaLisa kit (PerkinElmer). Freshly prepared acceptor bead mixture was dispensed onto lysate (5 ul) under green filtered <100 lux light. Plates were shaken at 900 rpm for 2 mins, briefly spun down, and incubated for 2 hrs at RT in the dark. Donor beads were dispensed (5 μl) under green filtered <100 lux light. Plates were shaken at 900 rpm for 2 mins, briefly spun down, and incubated overnight at RT in the dark. Luminescence was measured with excitation at 689 nm and emission at 570 nm using an EnVision plate reader (PerkinElmer) under green filtered <100 lux light.
To determine the inhibitory potency of test compounds in response to IL-2, the average emission intensity of beads bound to pSTAT5 was measured in primary CD4+ T cells isolated from murine splenocytes. IC50 values were determined from analysis of the inhibition curves of signal intensity vs compound concentration. Data are expressed as pIC50 (negative decadic logarithm IC50) values (mean standard deviation).

[2] = Colon and plasma mouse pharmacokinetics; format: in vivo; settings: male Balb/c mice, 10 mg/kg PO, 0.5, 2 and 6 h
Protocol: Assay 6: Colon and Plasma Mouse Pharmacokinetics
6 male Balb/c mice were administered 10 mg/kg of compound in 1% HPMC+0.1% Tween-80 by PO administration. At 0.5, 2 and 6 hours after dose administration, animals were anesthetized, and terminal blood samples were collected by cardiac puncture, followed by collection of colon contents and colon tissue.
Blood samples were collected into K2EDTA and stored on wet ice until processed to plasma by centrifugation (12,000 rpm at 4° C.). Plasma samples were transferred to cluster tubes and placed on dry ice prior to freezer storage. The colon contents from each animal were collected at each terminal blood collection time point. The colon tissues were flushed with saline and patted dry. The colon and colon content tissues were homogenized using sterile water containing 0.1% formic acid 9:1 (water:tissue, v/w). […] All samples were analyzed using LC/MS/MS against analytical standards.
The composite pharmacokinetic parameters of the compounds were determined by non-compartmental analysis using Phoenix WinNonlin Version 6 (Certara, St. Louis, Mo.) and using mean values from 2 animals/time point. For plasma concentrations below the quantification limit (BQL), the lowest concentration measurable or the BLOQ (below limit of quantification) was used.
A colon to plasma ratio was determined as the ratio of the colon AUC to the plasma AUC.

Caco-2 cell monolayers = test: Caco-2 permeation assay; settings: 5 μM, A to B, + Verapamil 25 μM; unit taken from the thresholds in the same block
Protocol: The Caco-2 permeation assay was performed to model the ability of test compounds to pass through the intestine and get into the blood stream after oral administration. The rate at which test compounds in solution permeate a cell monolayer designed to mimic the tight junction of human small intestinal monolayers was determined.
CacoReady 24-well transwell plates were obtained from ADMEcell (Alameda, Calif.). The compounds were evaluated at a concentration of 5 μM from 10 mM DMSO stock solutions in duplicate (n=2). The passive permeability of the compounds tested was evaluated using Caco-2 cell monolayers along with Verapamil (25 μM) to inhibit P-gp transport proteins in the apical to basolateral (A-B) direction. The experiment was conducted in a 37° C., 5% CO2 incubator. Caco-2 culture media consisted of standard filtered DMEM, FCS 10%, L-Glutamine 1% and PenStrep 1%. Basal assay plate was prepared by adding 750 μL of transport buffer to A-B wells. A CacoReady™ plate was prepared by removing the Caco-2 media from the apical wells and replacing with fresh transport media (200 μL repeated for a total of 3 washes). Blank media (200 μL) was then replaced with diluted compound for A-B wells. […] The permeation coefficient (Kp, mean A to B+Verapamil Papparent) in cm/sec was calculated as dQ (flux)/(dt×Area×concentration). […]

JAK1 = JAK1 (Homo sapiens (Human), UniProt P23458); test: Biochemical JAK1 kinase assay (LanthaScreen); settings: 1 h pre-incubation, ATP at Km 25 μM; pKi from pIC50 by Cheng-Prusoff
Sequence of JAK1 (P23458 whole entry): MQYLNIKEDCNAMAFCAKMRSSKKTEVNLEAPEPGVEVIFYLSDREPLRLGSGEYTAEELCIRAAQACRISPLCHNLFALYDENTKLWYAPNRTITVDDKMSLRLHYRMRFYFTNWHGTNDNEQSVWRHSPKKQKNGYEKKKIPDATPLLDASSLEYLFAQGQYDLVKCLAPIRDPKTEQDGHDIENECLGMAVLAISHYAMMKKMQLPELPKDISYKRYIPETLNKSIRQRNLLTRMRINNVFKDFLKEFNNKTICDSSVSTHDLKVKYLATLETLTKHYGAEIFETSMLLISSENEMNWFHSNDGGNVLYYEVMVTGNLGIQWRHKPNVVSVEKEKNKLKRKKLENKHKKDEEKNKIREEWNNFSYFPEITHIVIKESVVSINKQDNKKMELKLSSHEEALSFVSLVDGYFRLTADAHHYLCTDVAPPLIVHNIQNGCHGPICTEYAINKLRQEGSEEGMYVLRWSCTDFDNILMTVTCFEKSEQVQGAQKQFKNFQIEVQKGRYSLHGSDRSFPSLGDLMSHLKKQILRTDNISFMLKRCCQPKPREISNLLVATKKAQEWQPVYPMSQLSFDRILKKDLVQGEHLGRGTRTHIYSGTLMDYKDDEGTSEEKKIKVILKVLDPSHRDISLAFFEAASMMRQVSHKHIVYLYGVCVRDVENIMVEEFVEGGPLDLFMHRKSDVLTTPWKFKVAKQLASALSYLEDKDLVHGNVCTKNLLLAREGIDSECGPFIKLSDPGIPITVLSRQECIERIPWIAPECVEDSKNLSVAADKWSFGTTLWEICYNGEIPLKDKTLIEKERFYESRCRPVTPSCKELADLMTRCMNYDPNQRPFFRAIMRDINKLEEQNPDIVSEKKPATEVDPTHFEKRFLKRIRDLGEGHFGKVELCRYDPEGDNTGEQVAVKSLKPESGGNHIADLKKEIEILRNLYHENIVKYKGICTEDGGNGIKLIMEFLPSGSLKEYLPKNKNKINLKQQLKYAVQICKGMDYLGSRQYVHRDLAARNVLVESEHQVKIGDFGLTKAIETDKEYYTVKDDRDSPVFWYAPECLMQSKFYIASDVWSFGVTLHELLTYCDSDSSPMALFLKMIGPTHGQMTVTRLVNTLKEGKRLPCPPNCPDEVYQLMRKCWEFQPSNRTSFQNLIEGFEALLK
Protocol: as §1, §2
Serially or discretely diluted compounds were pre-incubated with each of the four JAK enzymes and the substrate in white 384-well microplates (Corning) at ambient temperature for 1 h. ATP was subsequently added to initiate the kinase reactions in 10 μL total volume, with 1% DMSO. […] The plates were allowed to incubate at ambient temperature for 1 h before being read on the EnVision reader (Perkin Elmer). Emission ratio signals (520 nm/495 nm) were recorded and utilized to calculate the percent inhibition values based on DMSO and background controls.
as §3

Sequence of JAK3 (P52333 whole entry): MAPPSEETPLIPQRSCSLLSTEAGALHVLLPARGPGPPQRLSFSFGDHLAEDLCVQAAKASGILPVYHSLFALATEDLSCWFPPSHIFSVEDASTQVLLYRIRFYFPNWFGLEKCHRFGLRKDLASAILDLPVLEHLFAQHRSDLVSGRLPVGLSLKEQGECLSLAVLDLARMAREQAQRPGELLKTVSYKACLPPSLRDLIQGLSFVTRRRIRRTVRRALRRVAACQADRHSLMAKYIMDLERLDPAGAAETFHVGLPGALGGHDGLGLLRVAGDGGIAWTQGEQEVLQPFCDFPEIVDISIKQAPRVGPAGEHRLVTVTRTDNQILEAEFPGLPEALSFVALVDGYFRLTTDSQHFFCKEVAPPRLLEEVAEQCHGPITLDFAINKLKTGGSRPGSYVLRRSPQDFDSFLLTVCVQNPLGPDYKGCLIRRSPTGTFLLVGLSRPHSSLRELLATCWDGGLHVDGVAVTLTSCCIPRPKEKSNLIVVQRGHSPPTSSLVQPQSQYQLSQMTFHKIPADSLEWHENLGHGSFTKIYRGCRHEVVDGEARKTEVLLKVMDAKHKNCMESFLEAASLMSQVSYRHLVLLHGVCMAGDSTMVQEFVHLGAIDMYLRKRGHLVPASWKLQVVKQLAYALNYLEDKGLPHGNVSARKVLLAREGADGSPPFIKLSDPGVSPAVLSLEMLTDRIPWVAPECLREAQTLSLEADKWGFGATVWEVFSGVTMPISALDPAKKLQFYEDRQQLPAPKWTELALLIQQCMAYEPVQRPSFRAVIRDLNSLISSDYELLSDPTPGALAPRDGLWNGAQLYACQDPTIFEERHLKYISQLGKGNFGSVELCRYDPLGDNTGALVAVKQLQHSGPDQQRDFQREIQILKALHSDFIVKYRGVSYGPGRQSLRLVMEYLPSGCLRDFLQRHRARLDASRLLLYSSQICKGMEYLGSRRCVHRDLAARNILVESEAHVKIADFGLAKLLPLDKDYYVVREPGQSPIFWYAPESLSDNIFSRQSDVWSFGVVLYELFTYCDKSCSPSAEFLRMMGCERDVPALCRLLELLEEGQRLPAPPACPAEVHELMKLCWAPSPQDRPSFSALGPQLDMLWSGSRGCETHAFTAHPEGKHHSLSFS

SMILES	JAK3 (pKi)-JAK1 (pKi) (JAK3)	IC50 [1] [nM]	further results
C=CC(=O)N1CC(COc2cc(-c3ccc(O)c(Cl)c3)cn3cncc23)C1 [Example 12, 1-(3-(((6-(3-chloro-4-hydroxyphenyl)imidazo[1,5-a]pyridin-8-yl)oxy)methyl)azetidin-1-yl)prop-2-en-1-one]	A (a value of 3 or above)	< 1000	–
C=CC(=O)N1C[C@H](Nc2ncnc3[nH]ccc23)CC[C@@H]1C [PF-06651600, 2-propen-1-one, 1-[(2S,5R)-2-methyl-5-(7H-pyrrolo[2,3-d]pyrimidin-4-ylamino)-1-piperidinyl]]	–	–	colon to plasma ratio (colon AUC to plasma AUC) [2]: 2.8; Kp value (Caco-2 cell monolayers): 25 ×10⁻⁶ cm/s
CCc1cc(O)c(F)cc1-c1cc(OCC2CN(C(=O)/C=C/CN(C)C)C2)c2cncn2c1 [Example 24]	A (a value of 3 or above)	< 1000	–
C=CC(=O)N1CC(COc2cc(-c3ccc(O)cc3)cn3cncc23)C1 [Example 11, 1-(3-(((6-(4-hydroxyphenyl)imidazo[1,5-a]pyridin-8-yl)oxy)methyl)azetidin-1-yl)prop-2-en-1-one]	A (a value of 3 or above)	< 1000	–
C=CC(=O)N1CC(COc2cc(-c3cc(F)c(O)c(Cl)c3)cn3cncc23)C1 [Example 31]	A (a value of 3 or above)	< 1000	–
C=CC(=O)N1CC(COc2cc(-c3cc(Cl)c(O)c(OC)c3)cn3cncc23)C1 [Example 9, 1-(3-(((6-(3-chloro-4-hydroxy-5-methoxyphenyl)imidazo[1,5-a]pyridin-8-yl)oxy)methyl)azetidin-1-yl)prop-2-en-1-one]	A (a value of 3 or above)	< 1000	–
C=CC(=O)N1CC(COc2cc(-c3c(F)cc(O)cc3F)cn3cncc23)C1 [Example 7, 1-(3-(((6-(2,6-difluoro-4-hydroxyphenyl)imidazo[1,5-a]pyridin-8-yl)oxy)methyl)azetidin-1-yl)prop-2-en-1-one]	A (a value of 3 or above)	< 1000	–
C=CC(=O)N1CC(COc2cc(-c3ccc(O)c(F)c3F)cn3cncc23)C1 [Example 8, 1-(3-(((6-(2,3-difluoro-4-hydroxyphenyl)imidazo[1,5-a]pyridin-8-yl)oxy)methyl)azetidin-1-yl)prop-2-en-1-one]	A (a value of 3 or above)	< 1000	–
C=CC(=O)N1CC(COc2cc(-c3ccc(O)c(F)c3)cn3cncc23)C1 [Example 20]	A (a value of 3 or above)	< 1000	–
C=CC(=O)N1CCC(N(C)c2cc(-c3ccc(O)cc3)cn3cncc23)CC1 [Example 17]	B (a value of 2.3 to 3)	–	JAK 1 (pKi) (JAK1): E (a pKi value of 7 or below (Ki of 100 nM or above)); Ki (JAK3; 1 h pre-incubation, ATP at Km 1.6 μM, pKi from pIC50 by Cheng-Prusoff, read-out: JAK 3 (pKi) (converted)): 1 to 10 nM
C=CC(=O)N1CC[C@@H](Oc2cc(-c3ccc(O)cc3)cn3cncc23)C[C@H]1C [Example 15, 1-((2R,4R)-4-((6-(4-hydroxyphenyl)imidazo[1,5-a]pyridin-8-yl)oxy)-2-methylpiperidin-1-yl)prop-2-en-1-one]	A (a value of 3 or above)	< 1000	–
C=CC(=O)N1CC(C(C)(C)Oc2cc(-c3ccc(O)cc3)cn3cncc23)C1 [Example 28]	A (a value of 3 or above)	< 1000	–
